“Also recorded” adds a separate entry of the source.
Key:
[1] = system: Hs587T and MDA-MB-453 cell lines; assay: autophagy, mitochondria content and mitophagy in treated cancer cells; format: cell-based, human
From the text: The first bar indicates 100% folding activity of RRL without inhibitor. PR22 indicates the antibody without PR but with RRL and EnnA. PR represents the antibody (PR22) with PR but without RRL. All other samples have PR22, PR, and RRL without (first bar) or with increased concentration of EnnA. FIGS. 1C-1E are line graphs of cell survival versus EnnA concentration (μM) in breast cancer cell lines Hs578T (FIG. 1C), […] (FIG. 1D) and MDA-MB231 (FIG. 1E) upon treatment with EnnA for 48 and 72 h. […] PR alone (PR), antibody (PR22)+RRL, PR+RRL without inhibitor (RRL), PR+RRL with 1 μM 17-AAG (17AAG) PR+RRL with 10 μM BEAU or EnnA. FIGS. 1G-1I are autoradiographs of Western blots of cytosols from various cell lines treated with 17-AAG (1 μM) or EnnA (3 μM) with antibodies against the specified proteins. FIG. 1J is an autoradiograph showing EnnA causes autophagy in Hs578T and MDA-MB453 cell lines. FIGS. 1K-1N are electron microscopy micrographs showing autophagosomes and reduced mitochondria content in Hs578T cells treated with DMSO or EnnA. FIGS. 1O-1P are fluorescence micrographs showing EnnA causing reduced mitochondria content in Hs578T cells. FIGS. 1Q-1BB are fluorescence micrographs showing mitophagy in Hsp578T cells treated with EnnA as indicated by colocalization of the mitochondria marker Cox4 and the autophagy marker LC3BII.

E0771 murine cells = assay: autophagy in E0771 cells (fluorescence micrographs); format: cell-based
IDO = assay: HPLC-based assay of tryptophan and kynurenine in culture media; format: cell-based; settings: HEK 293 cells expressing IDO-GFP
Procedure: FIG. 3A-3B are autoradiographs of a Western blot showing expression of the indicated proteins in control (left lane) and 0.5 μM EnnA-treated (right lane) E0771 (FIG. 3A) and AT3 (FIG. 3B) cells. FIG. 3C is a graph showing FACS analysis of PD-L1 level in AT3 cells. FIGS. 3D-3K are graphs showing qPCR analysis of the mRNA level of cytokines TNFa (FIG. 3D), IL-6 (FIG. 3E), TGFb1 (FIG. 3F) and IL-10 (FIG. 3G), the chemokines S100a9 (FIG. 3J) and CCL3 (FIG. 3K), as well as PDL1 (FIG. 3H) and IDO (FIG. 3I). FIGS. 3L-3Q are micrographs of HEK293 cells transiently transfected with GFP-IDO fusion protein expressing or GFP alone plasmids for 24 h. Cells were then treated with 5 μM EnnA for 6 h and analyzed for green fluorescence and bright light. FIG. 3R is a line graph of μg/ml of tryptophan and its IDO-mediated product kynurenine using the previously reported HPLC-based assay.
Western blot analysis (FIG. 3A-3B) confirmed that EnnA destabilizes pAKT and reduces the protein expression of Hsp40 in E0771 and AT3. […] It also reduces the mRNA level of the chemokines S100a9 and CCL3 (FIG. 3J-3K). Importantly, EnnA reduces the mRNA and protein levels of the key immunological checkpoint component PDL-1 (FIG. 3H). Similar results were obtained with EMT6 (not shown). […]

E0771 tumors = assay: E0771 tumor model: EnnA versus 17-AAG and combinations with CPA or anti-CD8; format: in vivo, mice
Procedure: Groups of mice (n=10) were implanted with 50,000 E0771 cells. When tumors were about 150 mm3 in volume (10 days post-implantation), mice were injected every other day with DMSO, EnnA (10 mg/Kg) or 17-AAG (10 mg/Kg). Two extra groups were made. In one group, EnnA was combined with one dose (150 mg/Kg) of cyclophosphamide (CPA) on day 14. In the other EnnA was combined with anti-CD8 antibody (250 μg/mouse) injected on day 18 and 22.

CC[C@H](C)[C@H]1C(=O)O[C@H](C(C)C)C(=O)N(C)[C@@H]([C@@H](C)CC)C(=O)O[C@H](C(C)C)C(=O)N(C)[C@@H]([C@@H](C)CC)C(=O)O[C@H](C(C)C)C(=O)N1C [EnnA, Enniatin A]
mitochondria content in cancer cells ([1]; Hs578T cells): reduces
mitophagy ([1]; Hs578T cells, Cox4 / LC3BII colocalization): induction of mitophagy
mode of cell death (apoptosis / autophagy) ([1]; Hs587T and MDA-MB-453 cell lines): induces autophagy
autophagy (E0771 murine cells): induces autophagy
IDO enzymatic activity (tryptophan accumulation, kynurenine reduction in culture media) (IDO): loss of IDO enzymatic activity
breast cancer metastasis to the lungs (E0771 tumors; E0771 tumor bearing mice, H&E lung sections): prevents
tumor outcome (E0771 tumors; EnnA 10 mg/Kg combined with one dose (150 mg/Kg) of cyclophosphamide (CPA) on day 14): completely cured
tumor growth after CD8 T cell depletion (E0771 tumors; EnnA combined with anti-CD8 antibody (250 μg/mouse) on day 18 and 22): restores an aggressive tumor growth; also recorded: rapid regrowth of tumors
time mice remained tumor-free after the end of EnnA treatment (E0771 tumors; EnnA/CPA-treated mice): 2 months
anti-tumor efficacy compared with 17-AAG (E0771 tumors; each 10 mg/Kg every other day): more efficacious than 17-AAG

From US11446352B2, “Compositions and methods for inhibiting tumor-induced immune suppression” (priority 2017, dated 2022)
